# Measured values: EP0542497A1, “Heterocyclic compounds” (THE WELLCOME FOUNDATION LIMITED, priority 1991, dated 1993)
# Read-outs that look alike come from different tables or passages of the source.
# Key:
# [1] = molecular target: T1, DHFR (Candida albicans, UniProt P22906); assay: biochemical
# T1 sequence (P22906 1-192): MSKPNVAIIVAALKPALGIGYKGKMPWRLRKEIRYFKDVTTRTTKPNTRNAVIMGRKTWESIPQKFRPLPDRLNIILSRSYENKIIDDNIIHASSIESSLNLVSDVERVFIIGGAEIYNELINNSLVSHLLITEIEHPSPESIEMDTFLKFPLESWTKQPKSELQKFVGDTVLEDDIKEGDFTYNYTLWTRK
# [2] = molecular target: T2, human dihydrofolate reductase (Homo sapiens, UniProt P00374); assay: DHFR I50, human enzyme; format: biochemical
# T2 sequence (P00374 1-187): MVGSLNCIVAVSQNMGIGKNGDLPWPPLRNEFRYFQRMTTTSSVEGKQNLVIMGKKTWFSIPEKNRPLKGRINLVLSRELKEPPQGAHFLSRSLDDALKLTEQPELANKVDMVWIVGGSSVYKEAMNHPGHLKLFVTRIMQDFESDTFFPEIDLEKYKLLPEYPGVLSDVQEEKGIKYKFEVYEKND
# [3] = molecular target: T2, human dihydrofolate reductase; assay: Enzyme binding affinity (Ki) for human dihydrofolate reductase, Henderson equation; format: biochemical; settings: 50mM Sorenson's phosphate buffer, pH 7, 45µM dihydrofolate, 65µM NADPH
# [4] = test system: CCRF-CEM T cells; assay: Cytotoxicity in cell culture (inhibition of cell growth); format: cell-based; settings: human line, continuous exposure 72 hours
# Procedure: (§1) The cytotoxic effects of various compounds were measured by the inhibition of mammalian cell growth in culture. Cell lines were grown in RPMI-1640 media prepared without folic acid but supplemented with 10nM calcium leucovorin, 25mM HEPES and 10% dialysed fetal bovine serum. In the case of human medulloblastoma cells (Daoy), the media (containing undialysed 10% fetal bovine serum) was pretreated with the enzyme thymidine phosphorylase (20 units/ml for 30 mins. at 37°C) to remove endogenous thymidine. Cells were seeded into 96 well microtiter plates (at densities determined to give log phase growth of control cells at the end of the assay) in 150µl of medium and grown at 37°C in a humidified incubator at 6% CO₂ for 24 hours. Compounds were prepared in media at four times the highest concentration to be tested; two-fold serial dilutions were made, and compounds were added to cells. […] The EC₅₀, defined as the concentration of compound required to reduce growth to 50% of the control, was determined from a plot of per cent inhibition versus log concentration. Cells were continuously exposed to inhibitor for 72 hours.
# [5] = test system: D98 bone marrow cells; assay: as above; format: cell-based; settings: human line, continuous exposure 72 hours
# Procedure: as §1
# [6] = test system: Daoy medulloblastoma; assay: as above; format: cell-based; settings: human line, continuous exposure 72 hours, medium pretreated with thymidine phosphorylase
# Procedure: as §1
# [7] = test system: Ehrlich ascites carcinoma; assay: as above; format: cell-based; settings: mouse line, continuous exposure 72 hours
# Procedure: as §1
# [8] = test system: GC3C1 colon carcinoma; assay: as above; format: cell-based; settings: GC3/C1, human line, continuous exposure 72 hours
# Procedure: as §1
# [9] = test system: HCT8 colon adenocarcinoma; assay: as above; format: cell-based; settings: HCT-8, human line, continuous exposure 72 hours
# Procedure: as §1
# [10] = test system: KB3-1 epidermoid carcinoma; assay: as above; format: cell-based; settings: KB 3-1, human line, continuous exposure 72 hours
# Procedure: as §1
# [11] = test system: L cells (derived from connective tissue); assay: as above; format: cell-based; settings: mouse line, continuous exposure 72 hours
# Procedure: as §1
# [12] = test system: MCF7 breast adenocarcinoma; assay: as above; format: cell-based; settings: human line, continuous exposure 72 hours
# Procedure: as §1
# [13] = test system: P388 lymphoid neoplasm; assay: as above; format: cell-based; settings: mouse line, continuous exposure 72 hours
# Procedure: as §1
# [14] = test system: S180 sarcoma; assay: as above; format: cell-based; settings: S-180, mouse line, continuous exposure 72 hours
# Procedure: as §1
# [15] = test system: Sal. Typhosa CN512; assay: Minimum inhibitory concentration vs microorganisms; format: cell-based; settings: Wellcotest broth plus 7% lysed horse blood, 18 hours, 37°C
# [16] = Brain distribution in mice (brain and plasma concentrations by HPLC); format: in vivo; settings: female CD1 mice, 30 or 40 minutes after dose; Compound 1 17mg/kg i.v., Compound 2 10mg/kg i.v., piritrexim 200mg/kg i.p., trimetrexate 100mg/kg i.p.; average of several experiments
# Procedure: Female CD1 mice were dosed with Compound 1 (17mg/kg, i.v.), Compound 2 (10mg/kg, i.v.), piritrexim (200mg/kg,i.p.) or trimetrexate (100mg/kg, i.p.). Brain and plasma samples were collected 30 or 40 minutes later. The drugs were extracted from the samples, and their concentrations were determined using HPLC. The numbers represent the average of several experiments.
# [17] = test system: Str. Pyogenes CN10; assay: Minimum inhibitory concentration vs microorganisms; settings: Wellcotest broth plus 7% lysed horse blood, 18 hours, 37°C
# Source text: (§2) The culture medium used in the test was Wellcotest broth to which lysed horse blood had been added at a final concentration of 7%. The assay was semi-automated employing 96-well Microtiter plates, and growth was monitored visually.
# [18] = test system: Str. Faecalis CN478; assay: Minimum inhibitory concentration vs microorganisms; settings: Wellcotest broth plus 7% lysed horse blood, 18 hours, 37°C
# Source text: as §2
# [19] = test system: Str. Agalactiae CN1143; assay: Minimum inhibitory concentration vs microorganisms; settings: Wellcotest broth plus 7% lysed horse blood, 18 hours, 37°C
# Source text: as §2
# [20] = test system: Staph. Aureus CN491; assay: Minimum inhibitory concentration vs microorganisms; settings: Wellcotest broth plus 7% lysed horse blood, 18 hours, 37°C
# Source text: as §2
# [21] = test system: Bord. Bronchisep-tica CN385; assay: Minimum inhibitory concentration vs microorganisms; settings: Bord. Bronchiseptica CN385; Wellcotest broth plus 7% lysed horse blood, 18 hours, 37°C
# Source text: as §2
# [22] = test system: Past. Multocida ATCC6587; assay: Minimum inhibitory concentration vs microorganisms; settings: Wellcotest broth plus 7% lysed horse blood, 18 hours, 37°C
# Source text: as §2
# [23] = test system: Candida Albicans CN1863; assay: Minimum inhibitory concentration vs microorganisms; settings: Wellcotest broth plus 7% lysed horse blood, 18 hours, 37°C
# Source text: as §2
# [24] = test system: Myco. Smegmatis S3254; assay: Minimum inhibitory concentration vs microorganisms; settings: Wellcotest broth plus 7% lysed horse blood, 18 hours, 37°C
# Source text: as §2
# [25] = test system: Sal. Typhimurium S8587; assay: Minimum inhibitory concentration vs microorganisms; settings: Wellcotest broth plus 7% lysed horse blood, 18 hours, 37°C
# Source text: as §2
# [26] = test system: Shig. Flexneri CN6007; assay: Minimum inhibitory concentration vs microorganisms; settings: Wellcotest broth plus 7% lysed horse blood, 18 hours, 37°C
# Source text: as §2
# [27] = test system: Mycobacterium avium complex (MAC); assay: In vitro activity vs Mycobacterium avium complex, radiometric respirometry (BACTEC); format: cell-based; settings: seven (7) clinical isolates of Myco. avium
# [28] = test system: Vibrio Cholerae ATCC14035; assay: Minimum inhibitory concentration vs microorganisms; settings: Wellcotest broth plus 7% lysed horse blood, 18 hours, 37°C
# Source text: as §2
smiles,measurement,setting,value
"CCC(CC)n1ccc2c3c(N)nc(N)nc3ccc21 [Compound 1, 1,3-Diamino-7-(1-ethylpropyl)-7H-pyrrolo(3,2-f)quinazoline]",IC50,"[1]; C.albicans enzyme, read-out: DHFR I50 C.albicans",4.5 nM
same,IC50,[2],< 1 nM
same,Ki,[3],0.019 nM
same,EC50,[4],0.7 nM
same,EC50,[5],45 nM
same,EC50,[6],8.4 nM
same,EC50,[7],1.9 nM
same,EC50,[8],3.5 nM
same,EC50,[9],1.2 nM
same,EC50,[10],70 nM
same,EC50,[11],2.2 nM
same,EC50,[12],38 nM
same,EC50,[13],2.7 nM
same,EC50,[14],4.8 nM
same,M I C,[15],0.1 µg/mL
same,Tissue concentration brain,[16],5.0 µg/g
same,Tissue concentration plasma,[16],0.70 µg/mL
same,M I C,[17],0.1 µg/mL
same,M I C,[18],0.1 µg/mL
same,M I C,[19],0.1 µg/mL
same,M I C,[20],0.1 µg/mL
same,M I C,[21],0.1 µg/mL
same,M I C,[22],0.1 µg/mL
same,M I C,[23],0.3 µg/mL
same,M I C,[24],0.1 µg/mL
same,M I C,[25],0.1 µg/mL
same,M I C,[26],0.1 µg/mL
"CCC(CC)n1c(C)cc2c3c(N)nc(N)nc3ccc21 [Compound 2, 1,3-Diamino-7-(1-ethylpropyl)-8-methyl-7H-pyrrolo(3,2-f)quinazoline]",IC50,[1],< 1 nM
same,IC50,[2],< 1 nM
same,Ki,[3],0.0014 nM
same,EC50,[4],< 1 nM
same,EC50,[5],12 nM
same,EC50,[6],0.4 nM
same,EC50,[8],0.8 nM
same,EC50,[9],0.3 nM
same,EC50,[10],13 nM
same,EC50,[11],0.7 nM
same,EC50,[12],0.9 nM
same,EC50,[13],0.3 nM
same,M I C,[15],0.1 µg/mL
same,Tissue concentration brain,[16],2.4 µg/g
same,Tissue concentration plasma,[16],0.36 µg/mL
same,inhibition at 1 µg/mL,"[27]; 1µg/ml, read-out: range of growth inhibition",69 to 97%
same,inhibition at 5 µg/mL,"[27]; 5µg/ml, read-out: range of growth inhibition",97 to 99%
same,M I C,"[27]; roughly translated from growth inhibition, read-out: average MIC",~1.6 µg/mL
same,M I C,[17],.0001 µg/mL
same,M I C,[18],.0001 µg/mL
same,M I C,[19],.0001 µg/mL
same,M I C,[20],0.01 µg/mL
same,M I C,[21],0.003 µg/mL
same,M I C,[28],.0001 µg/mL
same,M I C,[22],.0001 µg/mL
same,M I C,[23],0.03 µg/mL
same,M I C,[24],0.001 µg/mL
same,M I C,[25],0.003 µg/mL
same,M I C,[26],0.003 µg/mL
"COc1cc(Cc2cnc(N)nc2N)cc(OC)c1OC [Trimethoprim, 2,4-diamino-5-(3,4,5-trimethoxybenzyl)pyrimidine, reference compound]",M I C,[15],0.1 µg/mL
same,M I C,[17],0.1 µg/mL
same,M I C,[18],0.1 µg/mL
same,M I C,[19],0.1 µg/mL
same,M I C,[20],0.1 µg/mL
same,M I C,[28],0.3 µg/mL
same,M I C,[22],0.1 µg/mL
same,M I C,[23],>100 µg/mL
same,M I C,[24],0.3 µg/mL
same,M I C,[25],0.1 µg/mL
same,M I C,[26],0.1 µg/mL
